pKi: −log10 of the molar value.

The source of these data is ChEMBL document CHEMBL1149990, “1-(2-METHOXYPHENYL)-4-ALKYLPIPERAZINES: EFFECT OF THE N-4 SUBSTITUENT ON THE AFFINITY AND SELECTIVITY FOR DOPAMINE D4 RECEPTOR” (Bioorg Med Chem Lett, 1997).

One experiment concerns the target T1, D(4) dopamine receptor (Homo sapiens, UniProt P21917).
T1 sequence (P21917 whole entry): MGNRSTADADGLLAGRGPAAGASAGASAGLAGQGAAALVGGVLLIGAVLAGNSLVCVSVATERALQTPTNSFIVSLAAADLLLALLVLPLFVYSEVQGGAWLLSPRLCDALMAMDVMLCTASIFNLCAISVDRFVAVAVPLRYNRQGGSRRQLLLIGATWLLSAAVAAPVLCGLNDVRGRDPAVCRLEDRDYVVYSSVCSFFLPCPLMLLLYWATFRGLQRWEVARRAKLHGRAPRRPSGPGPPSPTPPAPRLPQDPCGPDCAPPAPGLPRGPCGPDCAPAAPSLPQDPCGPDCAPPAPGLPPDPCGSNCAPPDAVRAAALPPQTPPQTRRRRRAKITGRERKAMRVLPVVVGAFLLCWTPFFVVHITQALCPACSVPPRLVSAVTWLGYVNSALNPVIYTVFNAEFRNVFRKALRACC
In words: Displacement of [3H]YM-09151-2 from human Dopamine receptor D4.2 expressed in baculovirus Sf9 cells.

The target of experiment [1] is T2, Adrenergic receptor alpha-1 (Rattus norvegicus, UniProt P15823+P23944+P43140).
T2 sequence (P15823 whole entry): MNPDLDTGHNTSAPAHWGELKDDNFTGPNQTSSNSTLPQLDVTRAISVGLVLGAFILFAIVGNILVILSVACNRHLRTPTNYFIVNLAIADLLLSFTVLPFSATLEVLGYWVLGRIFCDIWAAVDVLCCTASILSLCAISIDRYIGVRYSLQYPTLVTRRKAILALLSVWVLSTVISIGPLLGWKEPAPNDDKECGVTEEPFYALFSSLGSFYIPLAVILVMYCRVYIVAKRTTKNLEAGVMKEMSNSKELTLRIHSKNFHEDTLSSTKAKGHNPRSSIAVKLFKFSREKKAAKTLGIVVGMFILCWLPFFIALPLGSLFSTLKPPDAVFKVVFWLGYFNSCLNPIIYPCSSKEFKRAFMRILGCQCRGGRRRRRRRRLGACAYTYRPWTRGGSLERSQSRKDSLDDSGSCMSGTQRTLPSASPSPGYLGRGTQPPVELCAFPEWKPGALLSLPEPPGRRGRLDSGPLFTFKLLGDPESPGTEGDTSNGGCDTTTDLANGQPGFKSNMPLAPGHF
T2 sequence (P23944 whole entry): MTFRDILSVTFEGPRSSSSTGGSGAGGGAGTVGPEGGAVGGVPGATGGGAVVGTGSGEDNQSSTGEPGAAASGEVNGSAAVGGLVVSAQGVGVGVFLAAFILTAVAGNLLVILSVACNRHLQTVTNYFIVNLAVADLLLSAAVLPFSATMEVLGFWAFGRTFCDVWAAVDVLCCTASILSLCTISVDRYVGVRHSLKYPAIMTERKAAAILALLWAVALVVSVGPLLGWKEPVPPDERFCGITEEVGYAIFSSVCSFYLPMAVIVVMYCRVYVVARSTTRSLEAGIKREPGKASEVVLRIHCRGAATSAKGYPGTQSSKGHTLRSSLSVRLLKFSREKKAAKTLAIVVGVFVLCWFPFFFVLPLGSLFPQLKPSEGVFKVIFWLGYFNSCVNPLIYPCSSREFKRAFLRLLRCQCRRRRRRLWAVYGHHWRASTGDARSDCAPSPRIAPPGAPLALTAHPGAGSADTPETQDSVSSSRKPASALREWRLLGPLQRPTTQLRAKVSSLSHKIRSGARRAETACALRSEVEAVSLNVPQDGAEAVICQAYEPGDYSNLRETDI
T2 sequence (P43140 whole entry): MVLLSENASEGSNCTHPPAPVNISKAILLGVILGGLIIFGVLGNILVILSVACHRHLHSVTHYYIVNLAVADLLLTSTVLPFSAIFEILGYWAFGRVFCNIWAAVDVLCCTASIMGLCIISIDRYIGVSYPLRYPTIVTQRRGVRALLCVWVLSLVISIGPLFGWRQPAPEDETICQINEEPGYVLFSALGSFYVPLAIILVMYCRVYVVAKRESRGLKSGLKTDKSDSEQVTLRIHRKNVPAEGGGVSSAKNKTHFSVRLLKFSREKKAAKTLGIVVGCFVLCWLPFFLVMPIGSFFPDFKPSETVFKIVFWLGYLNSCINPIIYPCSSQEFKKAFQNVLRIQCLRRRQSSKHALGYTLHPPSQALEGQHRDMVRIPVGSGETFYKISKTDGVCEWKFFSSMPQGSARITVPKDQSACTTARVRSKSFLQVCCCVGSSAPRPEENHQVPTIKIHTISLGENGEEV
Briefly: Displacement of [3H]prazosin from Alpha-1 adrenergic receptor of rat cerebral cortex. It counts as tissue-based. In general terms: Loss of bound radioactivity is the signal in a displacement assay; it reports binding, not function.

`COc1ccccc1N1CCN(CCCNC(=O)C2CCCc3cccc(OC)c32)CC1` (stereo not given) showed a pKi at D(4) dopamine receptor of 7.31. Besides, the Ki in experiment [1] is recorded as 70 nM.
`COc1cc(N)c(Cl)cc1C(=O)NCCN1CCN(c2ccccc2OC)CC1`: the negative logarithm of the Ki (pKi) at D(4) dopamine receptor was 7.72. For the same compound, in experiment [1], the Ki is 8 nM.
On to `COc1cccc(C(=O)CCCCN2CCN(c3ccccc3OC)CC2)c1`, for which, at D(4) dopamine receptor, the pKi is 7.37. Besides, the Ki in experiment [1] is 41 nM.
The matching figures for `COc1ccccc1N1CCN(CCC(=O)NC2CCCc3c(OC)cccc32)CC1` (stereo not given): 7.17 and 125 nM.
As for `COc1ccccc1N1CCN(Cc2cccc(-c3ccccc3)c2)CC1`, the negative-log Ki (pKi) on D(4) dopamine receptor was 8.10.
For `COc1ccccc1N1CCN(CCCCC2CCCc3c(OC)cccc32)CC1` (stereo not given), the negative logarithm of the Ki (pKi) on D(4) dopamine receptor was 7.37. In experiment [1], this compound came in with an inhibition constant Ki of 65 nM.
Compound `COc1ccccc1N1CCN(CCNC(=O)C2CCCc3c(OC)cccc32)CC1` (stereo not given) showed a pKi at D(4) dopamine receptor of 7.66.
With `COc1cccc(C(=O)CCCN2CCN(c3ccccc3OC)CC2)c1`, the negative-log Ki (pKi) at D(4) dopamine receptor is 8.77. Also, in experiment [1], the inhibitory constant (Ki) was determined as 19 nM.
In turn, `COc1ccccc1N1CCN(CCCC2CCCc3c(OC)cccc32)CC1` (stereo not given) displayed a Ki in experiment [1] of 1 nM.

Usually pKi stands for −log10 of the Ki, conventionally taken in molar units. As usually defined, the Ki is a dissociation constant, usually derived from enzyme kinetics or from competition with a known ligand. Read a high Ki as weaker binding.
